In US20260015364A1, “PIPERAZINE BRIDGE-SUBSTITUTED HETEROCYCLIC PYRIMIDINE COMPOUND” (MEDSHINE DISCOVERY INC., priority 2022, published 2026):

System: p-ERK in GP2D cells
Test: p-ERK inhibition test of GP2D cells (HTRF)
Assay type: cell-based
Conditions: Homo sapiens, 1 hour compound incubation
Description: • 1). GP2D cells are seeded in a transparent 96-well cell culture plate, with 80 μL of cell suspension per well and 8000 cells per well, and the cell plate is incubated in a carbon dioxide incubator at 37° C. overnight; • 2). 2 μL of the compound is added to 78 μL of cell culture medium; after mixing well, 20 μL of the compound solution is taken and added to the corresponding cell plate wells, and the cell plate is put back into the carbon dioxide incubator to incubate for another 1 hour; • 3). After the incubation is completed, the cell supernatant is discarded, and 50 μL of 1× cell lysate is added to each well, and incubated at room temperature for 30 minutes with shaking; • 4). Phospho-ERK1/2 Eu Cryptate antibody and Phospho-ERK1/2 d2 antibody are 20-fold diluted using detection buffer; • 5). […] After the incubation is completed, a multimode microplate reader is used to read HTRF excitation: 320 nm, emission: 615 nm, 665 nm; • 7). The IC50 of the test compound is calculated.
• 1). […] After the incubation was completed, a multimode microplate reader was used to read HTRF excitation: 320 nm, emission: 615 nm, 665 nm; • 7) The IC50 of the test compound was calculated.

Nc1cc(F)c(C(F)(F)F)c(-c2ncc3c(N4CC5C=CC(C4)N5)nc(OC[C@@]45CCCN4C[C@H](F)C5)nc3c2F)c1 [Compound 1]
IC50: 4.75 nM
